Assay results from patent publication US11518742B2 (priority 2020, dated 2022).
Read-outs that look alike come from different tables or passages of the source.

Experiments:
[1] = Solid form characterisation of 5MeODMT benzoate lots (XRPD, DSC, TGA, 1H NMR)
[2] = Dynamic Vapour Sorption (DVS); format: physicochemical
Protocol: A modified DVS isotherm of lot 20/45/006-FP (the same crystalline version) was undertaken to examine material behaviour from 60% RH and above. […] This is to obtain in-depth profiling of the material towards humidity at these elevated levels.
Temperature and humidity are important factors in the processing and storage of pharmaceuticals. DVS provides a versatile and sensitive technique for evaluating the stability of pharmaceutical formulations.
The solution was clarified into a 500 ml round bottom flask, the round bottom flask was rotated in an acetone/dry ice bath to freeze the solution in a thin layer around the flask. The ice was sublimed in vacuo at ambient temperature affording a fluffy white solid. The solid was removed from the round bottom flask and transferred to the DVS instrument. During this transfer, the solid collapsed to a sticky gum.
The sample was examined by DVS from 40% RH and cycled between 0% RH and 90% RH twice.
XRPD was collected on a portion of the sample post-lyophoilisation and post-DVS examination.

[3] = tested on: Slugs (Arion lusitanicus); format: in vivo
Excerpt: The Slug Mucosal Irritation (SMI) assay was initially developed at the Laboratory of Pharmaceutical Technology (UGent) to predict the mucosal irritation potency of pharmaceutical formulations and ingredients. The test utilizes the terrestrial slug Arion lusitanicus. The body wall of the slugs is a mucosal surface composed of different layers.
The outer single-layered columnar epithelium that contains cells with cilia, cells with micro-villi and mucus secreting cells covers the subepithelial connective tissue. Slugs that are placed on an irritating substance will produce mucus. Additionally tissue damage can be induced which results in the release of proteins and enzymes from the mucosal surface. […] A classification prediction model that distinguishes between irritation (mucus production) and tissue damage (release of proteins and enzymes) has been developed. […] A 5% shampoo dilution or artificial tears were instilled in the eye and the discomfort was scored by the participants on a 5 point scale during several time points up to 30 min after instillation. The same shampoos were tested in the SMI assay using the Stinging, Itching and Burning (SIB) protocol.
The purpose of this assay was to assess the stinging, itching or burning potential of the test item(s) defined below. Using the objective values obtained for the mucus production the stinging, itching or burning potential of the test item(s) can be estimated by means of the prediction model that is composed of four categories (no, mild, moderate and severe).
Test System: Slugs (Arion lusitanicus); 3 slugs per treatment group. The parental slugs of Arion lusitanicus collected in local gardens along Gent and Aalter (Belgium) are bred in the laboratory in an acclimatized room (18-20° C.). The slugs are housed in plastic containers and fed with lettuce, cucumber, carrots and commercial dog food.
Test Design: A single study was performed.
Slugs weighing between 3 and 6 g were isolated from the cultures two days before the start of an experiment. The body wall was inspected carefully for evidence of macroscopic injuries. […] The slugs were placed in a plastic box lined with paper towel moistened with PBS and were kept at 18-20° C. Daily the body wall of the slugs was wetted with 300 μl PBS using a micropipette.
An overview of this can be seen in FIG. 4.
The mucus production was expressed as % of the body weight.
Based on the endpoint of the SMI assay the stinging, itching or burning potency of the test item(s) was estimated using a classification prediction model.
The evaluation of the test results was based upon the total amount of mucus production during 3 repeated contact periods with the test item.
For each slug, the mucus production was expressed in % of the body weight by dividing the weight of the mucus produced during each contact period by the body weight of the slug before the start of that contact period. The total mucus was calculated for each slug and then the mean per treatment group was calculated. The classification prediction model shown in Table 1 was used to classify the compounds.

[4] = Controlled cooling crystallisation: solubility in minimal solvent at 50 °C; format: physicochemical; details: 50° C.
Protocol: (detailed in the Table below). The solutions were clarified through a 0.45 μm Teflon syringe filter into pre-heated crystallisation tubes and cooled from 50° C. to −10° C. over 60 hours (1° C. Hr-1 cooling rate) and held at −10° C. for 50 hours (no agitation).
Solutions were clarified into crystallisation tubes at 50° C. and were cooled to −10° C. at a rate of 10° C.·hr-1, then equilibrated at −10° C. for 12 hours, then agitated at −10° C. at 400 rpm for 30 minutes which afforded a mobile suspension for all samples except Sample I which remained a solution. Further equilibration with agitation at −10° C. at 400 rpm for 3 hours afforded a thin suspension. All samples were isolated via isolute cartridge and air dried for 5 minutes before characterisation.

ovine nasal epithelium = assay: Permeation through ovine nasal epithelium; format: in vitro ADME; details: for Cumulative amount (μg/cm^2): […] dosing solution in water, mean, n=5; for Permeation compared with the hydrochloride salt: across ovine nasal epithelium
Excerpt: The use of ovine nasal epithelium to study nasal drug absorption is a technique which is well known to the person skilled in the art.

[5] = Stability of solid forms (Patterns A, B, C) open to atmosphere and in vacuo at 50 °C, by XRPD; format: physicochemical
Protocol: XRPD was performed regularly. DSC and 1H NMR spectroscopy were performed on samples where significant differences to the diffraction patterns were observed.

[6] = Example 8, Concentration (w/v) 10%
[7] = Concentration 10%, treatment time 45-min (3× 15-min)
[8] = Table 2, stinging, itching and burning
[9] = Table 3, stinging, itching and burning

COc1ccc2[nH]cc(CCN(C)C)c2c1.O=C(O)c1ccccc1 [5MeODMT benzoate 21-01-064 A]
Crystalline character ([1]; predominantly Pattern C lots): Pattern C

COc1ccc2[nH]cc(CCN(C)C)c2c1.O=C(O)c1ccccc1 [5MeODMT benzoate 21-01-064 E]
Crystalline character ([1]; predominantly Pattern D lots): Pattern D

COc1ccc2[nH]cc(CCN(C)C)c2c1.O=C(O)c1ccccc1 [5MeODMT benzoate]
Form/version modification on exposure to variable humidity [2]: no evidence of form/version modification | Stability by DVS profile compared with the hydrochloride salt [2]: significantly higher | Maximum water uptake/loss ([2]; from 0 to 90% humidity): ~0.20% | Irritation score on SMI testing ([3]; Example 8): mild | Total MP (% body weight) [3, 6]: 7.38 % body weight | Solubility (mg · mL^1) ([4]; 2-MeTHF): 31.25 mg · mL^1 | Solubility (mg · mL^1) ([4]; 3-methyl-1-butanol): 31.25 mg · mL^1 | Solubility (mg · mL^1) ([4]; Acetone): 62.5 mg · mL^1 | Solubility (mg · mL^1) ([4]; Chlorobenzene): 12.5 mg · mL^1 | Solubility (mg · mL^1) ([4]; IPA): 42 mg · mL^1 | Solubility (mg · mL^1) ([4]; MEK): 62.5 mg · mL^1 | Solubility (mg · mL^1) ([4]; MeCN): 50 mg · mL^1 | Solubility (mg · mL^1) ([4]; MeOH): 250 mg · mL^1 | Solubility (mg · mL^1) ([4]; MeOH:TBME (1:1)): 125 mg · mL^1 | Solubility (mg · mL^1) ([4]; Nitromethane): 125 mg · mL^1 | Solubility (mg · mL^1) ([4]; THF): 83 mg · mL^1 | Solubility (mg · mL^1) ([4]; iPrOAc): 12.5 mg · mL^1 | Cumulative amount (μg/cm^2) (ovine nasal epithelium; Time 0.0 min): 0.00 μg/cm^2 | Cumulative amount (μg/cm^2) (ovine nasal epithelium; Time 10.0 min): 0.20 μg/cm^2 | Cumulative amount (μg/cm^2) (ovine nasal epithelium; Time 20.0 min): 3.46 μg/cm^2 | Cumulative amount (μg/cm^2) (ovine nasal epithelium; Time 30.0 min): 9.30 μg/cm^2 | Cumulative amount (μg/cm^2) (ovine nasal epithelium; Time 40.0 min): 15.46 μg/cm^2 | Cumulative amount (μg/cm^2) (ovine nasal epithelium; Time 50.0 min): 21.51 μg/cm^2 | Cumulative amount (μg/cm^2) (ovine nasal epithelium; Time 60.0 min): 27.30 μg/cm^2 | Cumulative amount (μg/cm^2) (ovine nasal epithelium; Time 75.0 min): 33.34 μg/cm^2 | Cumulative amount (μg/cm^2) (ovine nasal epithelium; Time 90.0 min): 39.77 μg/cm^2 | Permeation compared with the hydrochloride salt (ovine nasal epithelium; listed as 5MeODMT benzoate salt): higher permeation | Permeation compared with the hydrochloride salt (ovine nasal epithelium; listed as benzoate salt): higher permeation across the epithelium | Permeation compared with the hydrochloride salt (ovine nasal epithelium; listed as benzoate salt of 5MeODMT): higher permeation

O=C([O-])CC(O)(CC(=O)[O-])C(=O)[O-].[Na+].[Na+].[Na+] [Sodium citrate, 10%, Sodium citrate]
Total MP (% body weight) [3, 7]: 12.5 % body weight | SIB Category [3, 8]: Moderate (Moderate: 10% ≤ total MP < 17.5%) | SIB Category [3, 9]: Moderate (Moderate: 10% ≤ total MP < 17.5%)

COc1ccc2[nH]cc(CCN(C)C)c2c1.O=C(O)c1ccccc1
Crystalline character ([1]; predominantly Pattern E lots): Pattern E

COc1ccc2[nH]cc(CCN(C)C)c2c1.O=C(O)c1ccccc1 [Pattern B form]
Solid form stability ([5]; open to atmosphere at ca. 20° C., up to 12 days): stable

CC(=O)[O-].[Na+] [Sodium acetate, 10%, Sodium acetate]
SIB Category ([3]; in vivo): Moderate (key: No: total MP < 5.5%; Mild: 5.5% ≤ total MP < 10%; Moderate: 10% ≤ total MP < 17.5%; Severe: total MP ≥ 17.5%) | Total MP (% body weight) ([3]; in vivo): 11.0 % body weight

COc1ccc2[nH]cc(CCN(C)C)c2c1.O=C(O)c1ccccc1 [5MeODMT benzoate 21-01-064 E (air dried 4 hours)]
Crystalline character ([1]; predominantly Pattern D lots): Pattern D

COc1ccc2[nH]cc(CCN(C)C)c2c1.O=C(O)c1ccccc1 [5MeODMT benzoate 21-01-064 B]
Crystalline character ([1]; predominantly Pattern C lots): Pattern C

COc1ccc2[nH]cc(CCN(C)C)c2c1.O=C(O)c1ccccc1 [5MeODMT benzoate 21-01-064 D]
Crystalline character ([1]; predominantly Pattern E lots): Pattern E

COc1ccc2[nH]cc(CCN(C)C)c2c1.O=C(O)c1ccccc1 [5MeODMT benzoate 21-01-064 C]
Crystalline character ([1]; predominantly Pattern E lots): Pattern E

COc1ccc2[nH]cc(CCN(C)C)c2c1.O=C(O)c1ccccc1 [5MeODMT benzoate 21-01-064 F]
Crystalline character ([1]; predominantly Pattern D lots): Pattern D

O=C([O-])/C=C/C(=O)[O-].[Na+].[Na+] [Disodium fumarate, 10%, Disodium fumarate]
Total MP (% body weight) [3, 7]: 13.3 % body weight | SIB Category [3, 8]: Moderate (Moderate: 10% ≤ total MP < 17.5%) | SIB Category [3, 9]: Moderate (Moderate: 10% ≤ total MP < 17.5%) | MP CP1 (%) ([3]; mucus produced, first 15-min contact period, mean ± SD, n = 3): 5.0 ± 2.5%

O=P([O-])(O)O.[Na+] [Sodium phosphate, 10% monobasic, Sodium phosphate monobasic]
Total MP (% body weight) [3, 7]: 15.2 % body weight | SIB Category [3, 8]: Moderate (Moderate: 10% ≤ total MP < 17.5%) | SIB Category [3, 9]: Moderate (Moderate: 10% ≤ total MP < 17.5%)

COc1ccc2[nH]cc(CCN(C)C)c2c1.Cl [5MeODMT HCl, 5MeODMT hydrochloride]
State of material upon completion of the DVS cycle ([2]; lot 20/20/126-FP): completed deliquesced | Moisture uptake ([2]; lot 20/20/126-FP, 0-70% RH): less than 0.3 % w/w | Moisture uptake ([2]; lot 20/20/126-FP, 70-80% RH, first sorption cycle): Approximately 23 % w/w | Retained mass above the minimum mass recorded at 0% RH ([2]; lot 20/20/126-FP, subsequent cycles): 6-9 % w/w | Further moisture uptake ([2]; lot 20/20/126-FP, up to and when held at 90% RH): 20 % w/w | Moisture increase ([2]; lot 20/45/006-FP, 70-75% RH): ca. 0.46 % w/w | Moisture uptake ([2]; lot 20/45/006-FP, 75-80% RH): ca. 7% | Moisture uptake ([2]; lot 20/45/006-FP, 80-85% RH): ca. 40% | State of material post DVS analysis ([2]; lot 20/45/006-FP, likely above 80% RH): Complete deliquescence | Irritation score on SMI testing ([3]; Example 8): moderate | Total MP (% body weight) [3, 6]: 10.27 % body weight | Cumulative amount (μg/cm^2) (ovine nasal epithelium; Time 0.0 min): 0.00 μg/cm^2 | Cumulative amount (μg/cm^2) (ovine nasal epithelium; Time 10.0 min): 0.33 μg/cm^2 | Cumulative amount (μg/cm^2) (ovine nasal epithelium; Time 20.0 min): 3.30 μg/cm^2 | Cumulative amount (μg/cm^2) (ovine nasal epithelium; Time 30.0 min): 8.26 μg/cm^2 | Cumulative amount (μg/cm^2) (ovine nasal epithelium; Time 40.0 min): 13.33 μg/cm^2 | Cumulative amount (μg/cm^2) (ovine nasal epithelium; Time 50.0 min): 18.77 μg/cm^2 | Cumulative amount (μg/cm^2) (ovine nasal epithelium; Time 60.0 min): 23.43 μg/cm^2 | Cumulative amount (μg/cm^2) (ovine nasal epithelium; Time 75.0 min): 29.52 μg/cm^2

COc1ccc2[nH]cc(CCN(C)C)c2c1.O=C(O)c1ccccc1 [21-01-071 C1, Pattern C]
XRPD pattern throughout drying, Day 2 ([5]; In vacuo at 50° C., Day 2): B + A | XRPD pattern throughout drying, Day 3 ([5]; In vacuo at 50° C., Day 3): A + B | XRPD pattern throughout drying, Day 1 ([5]; Open to atmosphere at 20 ± 2° C., Day 1): C + B | XRPD pattern throughout drying, Day 4 ([5]; Open to atmosphere at 20 ± 2° C., Day 4): C + B | XRPD pattern throughout drying, Day 6 ([5]; Open to atmosphere at 20 ± 2° C., Day 6): C + B | XRPD pattern throughout drying, Day 8 ([5]; Open to atmosphere at 20 ± 2° C., Day 8): C + B | XRPD pattern throughout drying, Day 12 ([5]; Open to atmosphere at 20 ± 2° C., Day 12): C + B
